row,SMILES,melting point [°C]
1,CCCCNS(=O)(=O)C[C@@H](O)C(O)[C@@H](CC1CCCCC1)NC(=O)[C@H](CC(C)C)NC(=O)OCc1ccccc1 (relative stereo),50 to 70
2,CSc1ncccc1OCCO,80
3,CCC1(C)NC(=O)C(CCSC)O1 (stereo not given),62
4,Brc1ccc(CC2=NCCN2)c2ccccc12,133 to 135
5,C[C@@H](O)Cn1ncc2ccc(O)c([N+](=O)[O-])c21,70 to 74
6,OC(C(=Cn1cncn1)c1ccc(Cl)cc1)c1ccccc1C(F)(F)F (stereo not given),161
7,CN(C)C(=O)C1(CCC#N)c2ccccc2-c2ccccc21,109 to 110
8,C[C@]1(COc2ccc(N3CCN(CC=Cc4ccc(Cl)c(Cl)c4)CC3)cc2)Cn2cc([N+](=O)[O-])nc2O1,205 to 206
9,O=c1ncc(I)cn1COc1ccc(Cl)cc1,216
10,CCn1nc(-c2ccccc2)c(C(=O)O)c(Nc2cccnc2)c1=O,255 to 257
11,CC(C)(C(=O)O)c1ccc(Br)c([N+](=O)[O-])c1,167 to 171
12,O=C1Nc2ccccc2Oc2sc3ccccc3c21,240 to 242
13,C=CNC(=S)n1nc(Oc2ncc(C(F)(F)F)cc2Cl)cc1C,90 to 92
14,CCOC(=O)c1cn(-c2nc(F)c(F)c(NC(C)(C)C)c2F)c2c(Cl)c(F)c(F)cc2c1=O,145 to 146
15,CN1CCC(=C2c3ccccc3CCc3ccc(CO)cc32)CC1,178 to 181
16,COC(=O)c1cc(C2OC(=O)CC(C)O2)cnc1C1=NC(C)(C(C)C)C(=O)N1 (stereo not given),65 to 75
17,CC(C)n1cnc2c(Nc3ccccn3)nc(F)nc21,150 to 152
18,Cc1ncc(OC2CCCCO2)c(=O)[nH]1 (stereo not given),149 to 151
19,CCc1nc2c(C)cc(C)nc2n1Cc1ccc(C(=C(c2nnn[nH]2)S(C)=O)c2ccccc2)cc1 (stereo not given),141 to 144
20,Cc1oc(-c2ccccc2)nc1COc1ccc(CON=C(CCC(=O)O)c2ccc(Oc3ccccc3)cc2)cc1,131 to 132
21,CN1CCN(c2ccccc2C(F)(F)F)C(C2=NCCN2)C1 (stereo not given),163 to 165
22,CCOC(=O)c1cn(CC)c2nc(N3CCN(CC)CC3)ncc2c1=O,161
23,CC1CNCC1NC(=O)OC(C)(C)C (stereo not given),86.8 to 87
24,CCOC(=O)[C@@H](O)[C@@H]1OC(=O)c2c1cc(OC)c(OC)c2OC,111 to 112
25,CCC(=O)OC1CCC2C3CCC4=CC(=O)CCC4(C=O)C3CCC12C (stereo not given),119 to 121

row,SMILES,melting point [°C]
1,COc1ccc(N2CC(=O)N(C)C(=O)N2)cc1,179 to 181
2,CC(C)(C)c1ccc2c(c1)-c1c(c(C(=O)C(C#N)C(=O)NCc3ccccc3)nn1-c1ccccc1)CO2 (stereo not given),281 to 284
3,NS(=O)(=O)c1ccc2c(c1)C(=O)C1(CCOC1=O)S2 (stereo not given),199 to 201
4,CCOC(=O)CC(=O)Nc1ccc(N)c([N+](=O)[O-])c1,133 to 136
5,O=C1COCC2=C1C(c1ccc(F)c(Br)c1)C1=C(CNC1=O)N2 (stereo not given),> 260
6,O=C1N(c2cc(Cl)cc(Cl)c2)C(=O)C2(Cc3ccc(-c4ccc([N+](=O)[O-])cc4)cc3)CCCN12 (stereo not given),72 to 73
7,CCOC(=O)Cn1c(=O)c(C#N)c(N2CCN(C(=O)c3cccs3)CC2)c2cccnc21,236
8,CC1(COc2ccc([N+](=O)[O-])cc2)CC(=O)c2cc(C(=O)O)ccc2O1 (stereo not given),227 to 235
9,Cc1ncc(C=O)c(N)n1,191 to 192
10,CC(C)(c1ccccc1)N1CCC=C(c2ccccc2)C1=O,119 to 120
11,OC1C(COC2CC2)OC(n2cnc3c(NCc4cccc(I)c4)nc(Cl)nc32)C1O (stereo not given),94 to 96
12,COC(=O)CCC(C#N)(CCC(=O)OC)c1ccc(OC)c(OC2CCCC2)c1,81 to 82
13,COc1ccc(C(=CC(=O)O)c2ccc(-c3ccccc3)cc2)cc1OC,178 to 184
14,NS(=O)(=O)c1ccc(-c2noc(-c3cnc4ccc(-c5ccc(C(F)(F)F)cc5)cn34)n2)cc1,288
15,O=C(Nc1ccccc1)c1ccc(F)c(NC(=S)Nc2cc(Cl)cc(Cl)c2)c1,173 to 175
16,CC=CCn1c(C)c(CCCCC)c2cnnc(OCc3ccc(F)cc3)c21,65 to 69
17,CC(C)Cn1c(CNC(=O)OC(C)(C)C)c(-c2ccccc2F)c2cc(C(=O)O)ccc2c1=O,213 to 214
18,N#Cc1cnc(Nc2ccc(OCCn3cncn3)cc2)nc1-c1ccccc1,105
19,CC(C)(C)c1ccc(OCC(O)CN2CCC(N3CCC4(CC3)CSC3=C(O4)c4ccccc4C(=O)C3=O)CC2)cc1 (stereo not given),190 to 193
20,CCNc1nc(SC)ncc1CNc1cc(OC)cc(OC)c1Cl,116 to 118
21,Cc1ccc(S(=O)(=O)NCC(CC(=O)Nc2ccc(C(=O)O)cc2)c2ccccc2)cc1 (stereo not given),225 to 227
22,CCOc1cccc(-c2cc3n(n2)-c2ccccc2CC3)c1,99 to 100
23,CC(=O)OCCc1c(C2=CCC(c3ccccc3)(N(C)C)CC2)[nH]c2ccccc12 (stereo not given),146 to 148
24,N#Cc1ccccc1Nc1cc2c(cc1Nc1ccccc1C#N)C(=O)NC2=O,279 to 280
25,COc1cc2ncc(C#N)c(Nc3ccc4[nH]c(=O)sc4c3)c2cc1OC,285 to 287

row,SMILES,melting point [°C]
1,CNC(=O)NC(=O)C(CC1CCCC1)c1ccc(-c2cccc3ccccc23)cc1 (stereo not given),85 to 88
2,Cc1cc(C)nc(N=S(C)C)n1,117 to 120
3,OC(COc1ccc(-c2ccccc2Br)cc1)CN1CCCC1 (stereo not given),70 to 72
4,C1CCC(Nc2nc(NC3CCCCC3)nc(NC3CCCCC3)n2)CC1,225
5,O=C1Nc2ccc(S(=O)(=O)N3CCCC3)cc2C1=O,200 to 201
6,CC(C)(C)c1cc(-c2ccccc2)c(Oc2cccc(C#N)c2C#N)c(-c2ccccc2)c1,189 to 192
7,N#CSc1nccnc1Cl,70 to 71
8,ClC(=NNc1ccccc1)c1cccc(Cl)c1,80 to 81.5
9,O=C(c1ccccc1)N1CCCC(c2nc(-c3ccc(F)cc3)no2)C1 (stereo not given),82 to 83
10,C[C@@H](CO)CCn1c(C(=O)NCc2cc(C(F)(F)F)cc(C(F)(F)F)c2)c(-c2ccc(Cl)cc2)c2cccnc2c1=O,259 to 261
11,CC(C)(COC(=O)c1cc(Cl)c(O)c(Cl)c1)COC(=O)c1cc(Cl)c(O)c(Cl)c1,180 to 181
12,O=C1CCCCN1[C@@H]1c2cc(C(F)(F)C(F)(F)C(F)(F)F)ccc2OC(CF)(CF)[C@H]1O (relative stereo),156 to 157
13,COCCc1nc2c(N)nc3cc(OCc4ccccc4)ccc3c2n1CCCCNC(N)=O,170 to 171
14,NN(Cc1nccs1)C1CCCN(C(=O)c2ccc(Nc3nccc(Nc4ccc(F)cc4)n3)cc2)C1 (stereo not given),160 to 165
15,CCCc1c(C)nc2ccc(C(=O)OC)cn2c1=O,98 to 99
16,CNCCc1cc(Br)cc(-c2sccc2C)c1N,68 to 70
17,CCOC(=O)c1ccc2c(c1)CC(CO)O2 (stereo not given),72 to 77
18,COc1cc(N=C2SC(=CC(=O)O)C(=O)N2c2cc(OC)c(OC)c(OC)c2)cc(OC)c1OC,250 to 252
19,O=C(CCCCCBr)c1cc2c3c(c1)CCN3C(=O)CC2,97 to 98
20,CCOC(=O)C(C#N)C1CC(C)(C)NC(C)(C)C1 (stereo not given),116 to 117
21,Nc1ccc(Oc2ccc3sncc3c2)cc1,100
22,Cc1cc2c(cc1C(=O)Cc1ccccc1)CCC2,126 to 127
23,NN=Cc1ccc(C(=O)NC2CCC3(CC2)CN(CC(=O)O)C(=O)O3)cc1 (stereo not given),280 to 284
24,CCOC(=O)c1cc(N)ccc1O,40 to 43
25,O=C(OC1CCCC1)c1ncn2c1[C@@H]1CCCN1C(=O)c1c(Cl)cccc1-2,210 to 212

row,SMILES,melting point [°C]
1,COc1cc(COc2nn(-c3ccccc3)cc2/C=C\c2cscn2)ccc1OCc1nc(-c2ccco2)oc1C,137 to 138
2,CCOC(=O)c1ccc(N2CCN(C(=O)C=Cc3cc(C(C)(C)C)c(O)c(C(C)(C)C)c3)CC2)cc1,147 to 150
3,Fc1ccccc1C1=CCC(=S)Nc2ccc(Cl)cc21,179 to 181
4,CCc1cccc(C)c1CNc1nc(Br)cnc1N,155
5,CCCNc1nnc(Cc2c(Cl)cncc2Cl)c2ccc(OC)cc12,222 to 223
6,C=C(C(=O)O)c1ccc2c(c1)Cc1ccccc1-2,183 to 185
7,CNc1nc2ccn(Cc3ccc(F)cc3)cc-2n1,210
8,COc1cc(C(S)CS)cc(OC)c1OC (stereo not given),72.5 to 73.5
9,O=c1ccoc(C(OC2CCCCO2)c2ccccc2)c1OCc1ccccc1 (stereo not given),115 to 116
10,CC(=O)NCCCC(=O)N1CC1C#N (stereo not given),72 to 75
11,COC(=O)C1=C(c2cc(OC)c(OC)c(OC)c2)c2ccccc2S(=O)(=O)N1Cc1ccc2c(c1)OCO2,182 to 183
12,O=C(NC(=O)c1cccnc1)NC1CCN(Cc2ccc3ncccc3c2)CC1,196 to 198
13,CC(C)n1nc(-c2nc(C3=CCCN(C)C3)c(N)nc2-c2ccccc2)ccc1=O,191 to 193
14,Cc1cc(-c2ccccc2)nc(N2CCN(c3ccc(O)cc3)CC2)c1C#N,207
15,COc1cccc(NC(C)=O)c1,81 to 82
16,CN(C)C=C(C#N)C(=O)Nc1ccc(F)cc1Cl,138 to 139
17,COC(=O)N(C)c1cccc(-c2ccc3nncn3n2)c1,195 to 199
18,Oc1cc(/C=C/c2ccccc2)cc(O)c1O,172
19,CC(c1ccccc1)c1cc(C(=O)O)c(O)c(C(C)c2ccccc2)c1 (stereo not given),147 to 150
20,O=C(O)COc1cccc2c1Cc1sc(S(=O)(=O)CCC(c3ccccc3)c3ccccc3)nc1-2,131 to 133
21,CCCCCCCCCCC#Cc1csc(CC(N)CO)c1 (stereo not given),85 to 135
22,CC=C(c1ccc(F)cc1)c1ccc(F)cc1,43 to 44
23,CS(=O)(=O)c1ccc(-c2cnn(-c3ccc(F)cc3)c(=O)c2COc2ccc(F)cc2)cc1,65 to 80
24,O=C(Nc1ccc(F)cc1F)Nc1cnc2cnccc2c1-c1ccccc1Cl,213 to 216
25,O=C(Nc1c(F)cccc1Cl)c1ccc(-n2nc(C(F)(F)F)cc2C2CC2)c(F)c1,148 to 152

# — a melting point compilation (Tetko et al.; mined from patent text by program, amines drawn as free bases though some values may be those of a salt)
